Our source for the IC50 and Papp A→B values is patent US20140005163A1 (NOVARTIS AG, priority 2010, published 2014).

In one data set the target is T1, PI3K delta (Homo sapiens, UniProt O00329).
T1 construct: for the full-length p110-d subunit are generated and fused by overlapping PCR; p85(iSH2) fusion partner (see partner chain) (N); His tag (C); made in house; host or cells: baculovirus; Tn5 (Trichoplusia ni) or TiniPro insect cells
As to the kind of experiment: PI3K delta kinase assay (Kinase-Glo luminescence). It is filed as biochemical. An outline of the steps:
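Recombinant p85(iSH2)-Gly linker-p110δ full-length construct (BV1060, C-terminal His tag) was used at 10 nM with 10 μg/mL phosphatidylinositol and 1 μM ATP in 10 mM Tris-HCl pH 7.5, 3 mM MgCl2, 50 mM NaCl, 0.05% CHAPS, 1 mM DTT. After 60 min at room temperature, remaining ATP was measured by Kinase-Glo luminescence.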
A general note: Kinase-Glo measures the ATP left after a reaction by luminescence.

In the next data set the target is T2, PI3K alpha (Homo sapiens, UniProt P42336).
T2 construct: p85(iSH2) fusion partner (see partner chain) (N); His tag (C); made in house; host or cells: baculovirus; Tn5 (Trichoplusia ni) or TiniPro insect cells
T2 sequence (P42336 with tags, fused parts or gaps limits assumed): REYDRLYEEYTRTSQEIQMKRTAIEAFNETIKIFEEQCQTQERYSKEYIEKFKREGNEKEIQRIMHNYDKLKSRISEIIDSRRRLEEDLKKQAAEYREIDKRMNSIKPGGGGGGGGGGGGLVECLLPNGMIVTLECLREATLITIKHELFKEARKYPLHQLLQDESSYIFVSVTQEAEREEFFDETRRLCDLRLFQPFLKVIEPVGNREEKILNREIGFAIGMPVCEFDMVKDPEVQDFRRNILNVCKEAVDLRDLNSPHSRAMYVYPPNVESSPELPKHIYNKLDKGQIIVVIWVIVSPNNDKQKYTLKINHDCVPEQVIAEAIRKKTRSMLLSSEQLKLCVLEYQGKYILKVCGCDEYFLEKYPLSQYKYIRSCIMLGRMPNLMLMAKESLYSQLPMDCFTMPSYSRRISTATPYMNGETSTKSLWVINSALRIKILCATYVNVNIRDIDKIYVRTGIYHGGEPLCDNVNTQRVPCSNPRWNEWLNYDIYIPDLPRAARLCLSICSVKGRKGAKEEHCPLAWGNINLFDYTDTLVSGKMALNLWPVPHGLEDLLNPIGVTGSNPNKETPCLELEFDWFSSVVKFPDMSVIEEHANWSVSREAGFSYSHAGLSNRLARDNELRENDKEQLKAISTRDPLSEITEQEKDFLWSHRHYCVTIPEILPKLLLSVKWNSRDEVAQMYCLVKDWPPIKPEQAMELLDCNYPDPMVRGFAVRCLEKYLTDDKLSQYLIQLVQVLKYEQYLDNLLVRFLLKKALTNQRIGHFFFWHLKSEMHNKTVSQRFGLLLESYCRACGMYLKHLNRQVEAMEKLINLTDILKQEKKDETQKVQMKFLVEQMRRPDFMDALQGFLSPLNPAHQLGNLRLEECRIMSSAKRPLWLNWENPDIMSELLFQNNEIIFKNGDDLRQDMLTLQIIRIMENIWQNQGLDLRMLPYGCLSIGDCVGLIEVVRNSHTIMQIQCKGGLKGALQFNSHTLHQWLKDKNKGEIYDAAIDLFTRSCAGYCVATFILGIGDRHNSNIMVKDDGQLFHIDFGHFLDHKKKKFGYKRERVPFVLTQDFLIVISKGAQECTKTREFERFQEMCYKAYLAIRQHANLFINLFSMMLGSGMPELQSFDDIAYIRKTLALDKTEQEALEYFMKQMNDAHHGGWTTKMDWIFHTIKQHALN
As to the kind of experiment: PI3K alpha kinase assay (Kinase-Glo luminescence). It is filed as biochemical. An outline of the steps:
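PI3Kα construct EMV B1075 (10 nM final) was preincubated with 10 μg/mL phosphatidylinositol in 10 mM Tris-HCl pH 7.5, 3 mM MgCl2, 50 mM NaCl, 0.05% CHAPS, 1 mM DTT. Reaction started with 1 μM ATP, 60 min at room temperature; remaining ATP measured by Kinase-Glo luminescence. IC50 from 4-parameter logistic fit of 8-point titrations.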

The nature of data set [1]: Cellular CaCo2 permeability assay from apical to basal (A-B). Type of data set: in vitro ADME. The note with it: human, Caco-2, read-out: Pe A-B (permeability). The text has this: The permeability in 10^−6 cm/s of compounds of formula (I) have been confirmed for selected example using a cellular CaCo2 permeability assay from apical to basal (A-B): […]
In general terms: Passage across Caco-2 layers is used to estimate intestinal permeability.

Another data set has as its target T3, PI3K beta (Homo sapiens, UniProt P42338).
T3 construct: for the full-length p110-b subunit are generated and fused by overlapping PCR; p85(iSH2) fusion partner (see partner chain) (N); His tag (C); made in house; host or cells: baculovirus; Tn5 (Trichoplusia ni) or TiniPro insect cells
As to the kind of experiment: PI3K beta kinase assay (Kinase-Glo luminescence). It is filed as biochemical. An outline of the steps: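 Enzyme: BV949 p85(iSH2)-Gly linker-p110β FL-His, 25 nM. Substrate: PI 10 μg/mL. ATP: 1 μM, added to start. Buffer: Tris pH 7.5 10 mM, MgCl2 3 mM, NaCl 50 mM, CHAPS 0.05%, DTT 1 mM. RT, 60 min. Readout: Kinase-Glo. IC50 by 4-parameter fit.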

In a further data set the target is T4, PI3K gamma (Homo sapiens, UniProt P48736).
T4 construct: His tag (C); made in house; host or cells: baculovirus (pVL1393); Tn5 or TiniPro insect cells; construct from Roger Williams lab, MRC LMB
T4 sequence (P48736 144-1102 limits assumed): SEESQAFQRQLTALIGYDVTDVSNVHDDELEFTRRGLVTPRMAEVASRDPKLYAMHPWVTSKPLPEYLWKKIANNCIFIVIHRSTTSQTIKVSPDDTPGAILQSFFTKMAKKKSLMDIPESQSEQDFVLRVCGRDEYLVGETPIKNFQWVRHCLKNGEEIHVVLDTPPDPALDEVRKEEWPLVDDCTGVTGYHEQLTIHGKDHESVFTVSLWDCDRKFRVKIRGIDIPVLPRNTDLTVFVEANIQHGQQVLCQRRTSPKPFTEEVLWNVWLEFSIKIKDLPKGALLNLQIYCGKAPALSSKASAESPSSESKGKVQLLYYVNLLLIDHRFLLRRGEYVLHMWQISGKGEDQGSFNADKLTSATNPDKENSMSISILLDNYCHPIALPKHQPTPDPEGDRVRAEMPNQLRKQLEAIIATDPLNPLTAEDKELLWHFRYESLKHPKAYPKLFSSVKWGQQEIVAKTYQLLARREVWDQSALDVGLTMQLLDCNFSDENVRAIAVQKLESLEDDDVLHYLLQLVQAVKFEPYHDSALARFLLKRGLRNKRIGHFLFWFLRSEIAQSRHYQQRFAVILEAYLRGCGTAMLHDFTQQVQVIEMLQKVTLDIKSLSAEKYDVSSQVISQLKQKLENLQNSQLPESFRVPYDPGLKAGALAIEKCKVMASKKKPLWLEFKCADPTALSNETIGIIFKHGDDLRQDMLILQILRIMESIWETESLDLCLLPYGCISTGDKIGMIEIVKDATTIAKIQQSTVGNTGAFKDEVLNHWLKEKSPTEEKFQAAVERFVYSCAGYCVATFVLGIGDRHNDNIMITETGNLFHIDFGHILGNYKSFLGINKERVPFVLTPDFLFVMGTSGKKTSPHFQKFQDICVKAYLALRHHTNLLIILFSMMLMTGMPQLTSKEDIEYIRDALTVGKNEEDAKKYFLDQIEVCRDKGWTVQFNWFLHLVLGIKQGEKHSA
The experiment in a line: PI3K gamma kinase assay (Kinase-Glo luminescence). It is filed as biochemical. An outline of the steps: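 Luminescent ATP-depletion (Kinase-Glo) assay with 150 nM PI3Kγ, 1 μM ATP and 10 μg/mL phosphatidylinositol in 10 mM Tris-HCl pH 7.5, 3 mM MgCl2, 50 mM NaCl, 0.05% CHAPS, 1 mM DTT; 120 min at room temperature. Eight-point dilutions; IC50 by four-parameter logistic fit.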

T1 sequence (O00329 with tags, fused parts or gaps limits assumed): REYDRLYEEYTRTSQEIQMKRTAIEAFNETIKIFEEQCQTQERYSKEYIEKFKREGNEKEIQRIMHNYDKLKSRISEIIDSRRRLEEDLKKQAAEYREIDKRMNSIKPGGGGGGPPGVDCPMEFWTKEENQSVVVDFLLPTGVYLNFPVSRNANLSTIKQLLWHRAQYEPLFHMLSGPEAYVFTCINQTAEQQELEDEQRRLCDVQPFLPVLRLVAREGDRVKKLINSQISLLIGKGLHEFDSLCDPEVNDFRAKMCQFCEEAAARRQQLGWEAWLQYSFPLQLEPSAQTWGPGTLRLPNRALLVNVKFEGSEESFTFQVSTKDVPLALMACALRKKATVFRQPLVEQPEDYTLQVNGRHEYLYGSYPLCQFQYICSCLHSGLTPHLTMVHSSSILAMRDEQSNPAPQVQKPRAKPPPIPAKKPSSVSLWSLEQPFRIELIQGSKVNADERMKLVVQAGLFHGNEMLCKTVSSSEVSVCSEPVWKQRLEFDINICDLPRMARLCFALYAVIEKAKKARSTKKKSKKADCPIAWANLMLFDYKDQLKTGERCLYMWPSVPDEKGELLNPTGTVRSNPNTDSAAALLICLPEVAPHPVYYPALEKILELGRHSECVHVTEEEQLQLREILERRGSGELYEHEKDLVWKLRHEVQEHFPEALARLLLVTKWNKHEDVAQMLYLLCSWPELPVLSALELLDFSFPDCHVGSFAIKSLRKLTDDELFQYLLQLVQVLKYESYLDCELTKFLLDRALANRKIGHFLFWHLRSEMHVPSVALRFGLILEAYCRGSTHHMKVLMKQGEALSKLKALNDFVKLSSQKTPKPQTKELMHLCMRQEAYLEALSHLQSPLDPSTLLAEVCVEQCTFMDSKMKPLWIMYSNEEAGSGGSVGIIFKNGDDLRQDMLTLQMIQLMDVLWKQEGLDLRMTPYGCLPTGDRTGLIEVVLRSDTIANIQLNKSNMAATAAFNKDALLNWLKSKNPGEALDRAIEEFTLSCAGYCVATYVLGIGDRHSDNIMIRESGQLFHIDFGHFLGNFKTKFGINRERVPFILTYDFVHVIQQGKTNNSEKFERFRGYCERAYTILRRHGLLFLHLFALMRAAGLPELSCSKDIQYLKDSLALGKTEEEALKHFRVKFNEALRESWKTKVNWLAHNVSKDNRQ
T3 sequence (P42338 with tags, fused parts or gaps limits assumed): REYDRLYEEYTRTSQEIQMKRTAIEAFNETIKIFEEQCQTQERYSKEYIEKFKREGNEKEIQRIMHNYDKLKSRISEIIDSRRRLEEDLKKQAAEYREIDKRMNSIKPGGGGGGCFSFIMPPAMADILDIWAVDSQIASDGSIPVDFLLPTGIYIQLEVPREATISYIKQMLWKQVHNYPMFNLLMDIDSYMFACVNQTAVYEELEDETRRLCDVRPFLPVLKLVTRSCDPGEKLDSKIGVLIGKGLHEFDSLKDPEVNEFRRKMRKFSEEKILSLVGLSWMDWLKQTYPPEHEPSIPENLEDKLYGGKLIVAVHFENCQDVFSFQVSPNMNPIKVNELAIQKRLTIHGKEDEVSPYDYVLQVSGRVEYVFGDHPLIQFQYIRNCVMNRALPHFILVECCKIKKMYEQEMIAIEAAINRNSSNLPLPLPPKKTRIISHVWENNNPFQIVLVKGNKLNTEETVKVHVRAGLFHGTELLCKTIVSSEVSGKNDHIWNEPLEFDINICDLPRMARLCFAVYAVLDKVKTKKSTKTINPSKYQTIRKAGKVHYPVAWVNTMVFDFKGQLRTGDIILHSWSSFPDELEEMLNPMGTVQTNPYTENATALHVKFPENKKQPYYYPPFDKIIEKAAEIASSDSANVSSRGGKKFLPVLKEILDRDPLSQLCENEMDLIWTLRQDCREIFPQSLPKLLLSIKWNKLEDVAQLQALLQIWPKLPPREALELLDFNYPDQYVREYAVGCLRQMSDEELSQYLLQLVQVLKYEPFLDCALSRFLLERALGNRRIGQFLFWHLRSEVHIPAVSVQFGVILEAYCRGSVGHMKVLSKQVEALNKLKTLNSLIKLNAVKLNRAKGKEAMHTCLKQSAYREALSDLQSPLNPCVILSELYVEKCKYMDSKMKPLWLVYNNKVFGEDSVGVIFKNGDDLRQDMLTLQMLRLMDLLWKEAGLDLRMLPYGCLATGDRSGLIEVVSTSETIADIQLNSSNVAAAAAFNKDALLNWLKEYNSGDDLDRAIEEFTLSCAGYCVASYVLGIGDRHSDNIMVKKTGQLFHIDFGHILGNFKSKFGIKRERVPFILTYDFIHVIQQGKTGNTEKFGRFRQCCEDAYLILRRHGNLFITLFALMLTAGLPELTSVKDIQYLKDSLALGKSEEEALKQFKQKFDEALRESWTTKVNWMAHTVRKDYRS

As for `CCOc1ccc(-c2ccc3ncc4c(c3c2)n(-c2cn(CC(=O)N(C)CC)nc2C)c(=O)n4C)cn1` [Example 136, 2-{4-[8-(6-Ethoxy-pyridin-3-yl)-3-methyl-2-oxo-2,3-dihydro-imidazo[4,5-c]quinolin-1-yl]-3-methyl-pyrazol-1-yl}-N-ethyl-N-methyl-acetamide], the IC50 turned out to be 0.214 µM at PI3K delta and 0.025 µM on PI3K alpha. For the same molecule, the Papp A→B in data set [1] was found to be 17 ×10⁻⁶ cm/s.

Consider `CNc1ncc(-c2ccc3ncc4c(c3c2)n(-c2cn(C)nc2C)c(=O)n4C)cc1Cl` [Example 146.1, 8-(5-Chloro-6-methylamino-pyridin-3-yl)-1-(1,3-dimethyl-1H-pyrazol-4-yl)-3-methyl-1,3-dihydro-imidazo[4,5-c]quinolin-2-one], for which the values for the IC50 at PI3K delta, at PI3K alpha and at PI3K beta were 0.016 µM, 0.014 µM and 0.045 µM, respectively. The Papp A→B in data set [1] is 29.1 ×10⁻⁶ cm/s.

As for `COc1ncc(-c2ccc3ncc4c(c3c2)n(-c2cn(C)nc2C)c(=O)n4C)cn1` [Example 17.2, 1-(1,3-Dimethyl-1H-pyrazol-4-yl)-8-(2-methoxy-pyrimidin-5-yl)-3-methyl-1,3-dihydro-imidazo[4,5-c]quinolin-2-one], the IC50 stood at 0.873 µM on PI3K gamma, 0.038 µM at PI3K delta, 0.056 µM on PI3K alpha and 0.206 µM at PI3K beta.

In the case of `COc1ccc(-c2ccc3ncc4c(c3c2)n(-c2cn(CCO)nc2C)c(=O)n4C)cn1` [Example 103.1, 1-[1-(2-Hydroxy-ethyl)-3-methyl-1H-pyrazol-4-yl]-8-(6-methoxy-pyridin-3-yl)-3-methyl-1,3-dihydro-imidazo[4,5-c]quinolin-2-one], the IC50 at PI3K gamma came out at 0.191 µM; at PI3K delta it was 0.019 µM; on PI3K alpha, 0.02 µM; at PI3K beta it was 0.101 µM.

In the case of `CCn1cc(-n2c(=O)n(C)c3cnc4ccc(-c5cnc(OC)nc5OC)cc4c32)c(C)n1` [Example 234.1, 8-(2,4-Dimethoxy-pyrimidin-5-yl)-1-(1-ethyl-3-methyl-1H-pyrazol-4-yl)-3-methyl-1,3-dihydro-imidazo[4,5-c]quinolin-2-one], the IC50 came to 0.009 µM on PI3K delta, 0.02 µM at PI3K alpha and 0.119 µM at PI3K beta. Further, in data set [1], the Papp A→B amounted to 35.5 ×10⁻⁶ cm/s.

`CNC(=O)c1ccc(-c2ccc3ncc4c(c3c2)n(-c2cn(C)nc2C)c(=O)n4C)cc1` [Example 43.1, 4-[1-(1,3-Dimethyl-1H-pyrazol-4-yl)-3-methyl-2-oxo-2,3-dihydro-1H-imidazo[4,5-c]quinolin-8-yl]-N-methyl-benzamide]: the half-maximal inhibitory concentration (IC50) at PI3K gamma was 0.15 µM; at PI3K delta it was 0.218 µM; on PI3K alpha, 0.01 µM; on PI3K beta, 0.19 µM.

For `CCOc1cc(-c2ccc3ncc4c(c3c2)n(-c2cn(C)nc2C)c(=O)n4C)cnc1COC` [Example 197.1, 1-(1,3-Dimethyl-1H-pyrazol-4-yl)-8-(5-ethoxy-6-methoxymethyl-pyridin-3-yl)-3-methyl-1,3-dihydro-imidazo[4,5-c]quinolin-2-one], the values for the IC50 at PI3K delta, on PI3K alpha and on PI3K beta were 0.035 µM, 0.034 µM and 0.468 µM, respectively. For the same molecule, the Papp A→B in data set [1] was 15.8 ×10⁻⁶ cm/s.

For `Cc1nn(C(C)C)cc1-n1c(=O)n(C)c2cnc3ccc(-c4cncc(C(C)(C)O)c4)cc3c21` [Example 215.1, 8-[5-(1-Hydroxy-1-methyl-ethyl)-pyridin-3-yl]-1-(1-isopropyl-3-methyl-1H-pyrazol-4-yl)-3-methyl-1,3-dihydro-imidazo[4,5-c]quinolin-2-one], the IC50 on PI3K delta came to 0.014 µM; at PI3K alpha, 0.012 µM; on PI3K beta, 0.04 µM. In data set [1], the Papp A→B is 5.9 ×10⁻⁶ cm/s.

`COc1ccc(-c2ccc3ncc4c(c3c2)n(-c2c(C)nn(C)c2C)c(=O)n4C)cn1` [Example 2.4, 8-(6-Methoxy-pyridin-3-yl)-3-methyl-1-(1,3,5-trimethyl-1H-pyrazol-4-yl)-1,3-dihydro-imidazo[4,5-c]quinolin-2-one]: the 50% inhibitory concentration (IC50) on PI3K gamma is 0.199 µM; on PI3K delta, 0.033 µM; at PI3K alpha, 0.065 µM; at PI3K beta it was 0.12 µM.

Turning to `COc1ccc(-c2ccc3ncc4c(c3n2)n(-c2cc(C)nn2C)c(=O)n4C)cc1OC` [Example 253, 8-(3,4-Dimethoxy-phenyl)-1-(2,5-dimethyl-2H-pyrazol-3-yl)-3-methyl-1,3-dihydro-1,3,5,9-tetraaza-cyclopenta[a]naphthalen-2-one], the IC50 at PI3K gamma was determined as 0.088 µM; at PI3K delta, 0.005 µM; on PI3K alpha it was 0.004 µM; at PI3K beta, 0.008 µM.

On to `Cc1nn(C)c(C)c1-n1c(=O)n(C)c2cnc3ccc(-c4ccc(N(C)C)nc4)cc3c21` [Example 4.3, 8-(6-Dimethylamino-pyridin-3-yl)-3-methyl-1-(1,3,5-trimethyl-1H-pyrazol-4-yl)-1,3-dihydro-imidazo[4,5-c]quinolin-2-one], for which the IC50 on PI3K gamma stood at 0.142 µM; at PI3K delta it was 0.098 µM; at PI3K alpha, 0.099 µM; at PI3K beta, 0.382 µM.

For the molecule `CNC(=O)c1ccc(-c2ccc3ncc4c(c3c2)n(-c2cn(C)nc2C)c(=O)n4C)cn1` [Example 15.1, 5-[1-(1,3-Dimethyl-1H-pyrazol-4-yl)-3-methyl-2-oxo-2,3-dihydro-1H-imidazo[4,5-c]quinolin-8-yl]-pyridine-2-carboxylic acid methylamide], the IC50 on PI3K gamma came out at 0.528 µM; on PI3K delta, 0.257 µM; at PI3K alpha, 0.016 µM; at PI3K beta, 0.255 µM.

For `CCOc1cc(-c2ccc3ncc4c(c3c2)n(-c2cn(C)nc2C)c(=O)n4C)ccn1` [Example 91, 1-(1,3-Dimethyl-1H-pyrazol-4-yl)-8-(2-ethoxy-pyridin-4-yl)-3-methyl-1,3-dihydro-imidazo[4,5-c]quinolin-2-one], the IC50 is 0.25 µM on PI3K gamma, 0.203 µM at PI3K delta, 0.083 µM on PI3K alpha and 0.409 µM at PI3K beta.

For `CCn1cc(-n2c(=O)n(C)c3cnc4ccc(-c5cnc(OC)nc5)cc4c32)c(C)n1` [Example 17.1, 1-(1-Ethyl-3-methyl-1H-pyrazol-4-yl)-8-(2-methoxy-pyrimidin-5-yl)-3-methyl-1,3-dihydro-imidazo[4,5-c]quinolin-2-one], the IC50 was 0.386 µM at PI3K gamma, 0.02 µM at PI3K delta, 0.03 µM at PI3K alpha and 0.12 µM at PI3K beta.

For `Cc1nn(C)c(C)c1-n1c(=O)n(C)c2cnc3ccc(-c4cccc(O)c4)cc3c21` [Example 32.2, 8-(3-Hydroxy-phenyl)-3-methyl-1-(1,3,5-trimethyl-1H-pyrazol-4-yl)-1,3-dihydro-imidazo[4,5-c]quinolin-2-one], the IC50 on PI3K gamma came out at 0.16 µM; at PI3K delta it was 0.038 µM; at PI3K alpha, 0.03 µM; at PI3K beta, 0.165 µM.

Consider `CCOc1ccc(-c2ccc3ncc4c(c3c2)n(-c2c(C)nn(C)c2C)c(=O)n4C)cc1OC` [Example 29.2, 8-(4-Ethoxy-3-methoxy-phenyl)-3-methyl-1-(1,3,5-trimethyl-1H-pyrazol-4-yl)-1,3-dihydro-midazo[4,5-c]quinolin-2-one], for which the IC50 at PI3K gamma turned out to be 0.145 µM; at PI3K delta it was 0.056 µM; on PI3K alpha, 0.038 µM; on PI3K beta it was 0.167 µM.

Broadly, the IC50 is the concentration at which inhibition is half-maximal.
